From US11702422B2, “Imidazopyridazines as modulators of IL-17” (Janssen Pharmaceutica NV, priority 2020, dated 2023)

What was measured:
[1] = target: IL-17A(FLAG-Tagged): IL-17RA(His-Tagged) (Homo sapiens, UniProt Q16552, K93Q); experiment: IL-17A(FLAG-Tagged): IL-17RA(His-Tagged) Binding Disruption Eu-HTRF Assay; conditions: IL-17A/IL-17RA binding disruption, simple average if tested more than once
How it was run: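 IC50 comes from a one-site competition fit of the HTRF 665/620 nm ratio. Compound dilutions (2-fold, 22 points) were held 1 h rt with FLAG-tagged IL-17A dimer, then His-tagged IL-17RA plus Eu-cryptate anti-FLAG and D2 anti-His antibodies were added for 2 h rt.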

[2] = test system: IL-17A-induced G-CSF production in human normal keratinocyte (NHK); experiment: NHK Assay: IL-17A-induced G-CSF production in human normal keratinocytes; format: cell-based; conditions: adult normal human keratinocytes, IL-17A 5 ng/mL, 24 h, simple average if tested more than once
How it was run: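 IL-17A (5 ng/mL final) was pre-incubated 1 h at rt with titrated compound and then added to adult normal human keratinocytes (5% FBS, 0.2% DMSO) for 24 h at 37° C. Supernatant G-CSF was measured by HTRF against a standard curve to derive IC50. Viability was checked by CellTiter-Glo.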

UniProt Q16552, sequence (Q16552 with tags, fused parts or gaps K93Q): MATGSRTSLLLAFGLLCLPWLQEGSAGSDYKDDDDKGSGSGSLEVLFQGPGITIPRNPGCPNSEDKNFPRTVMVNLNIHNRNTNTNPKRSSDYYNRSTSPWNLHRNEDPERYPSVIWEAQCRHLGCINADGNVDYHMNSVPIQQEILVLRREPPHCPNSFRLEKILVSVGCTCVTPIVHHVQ

SMILES	IC50 [1]	IC50 [2]	IC50 ([2]; Homo sapiens, Keratinocyte)
CCOCC(NC(=O)CC1CC(F)(F)C1)c1cnn2cc([C@@H](NC(=O)c3ccnn3C(C)C)C3CCC(F)(F)CC3)nc2c1 (single isomer, unassigned) [Example 529, N—((S)-(7-((S*)-1-(2-(3,3-Difluorocyclobutyl)acetamido)-2-ethoxyethyl)imidazo[1,2-b]pyridazin-2-yl)(4,4-difluorocyclohexyl)methyl)-1-isopropyl-1H-pyrazole-5-carboxamide]	340 nM	120 nM	
[2H]C([2H])([2H])C([2H])([2H])n1nccc1C(=O)N[C@H](c1cn2ncc(C(COCC)NC(=O)CC3CC(F)(F)C3)cc2n1)C1CCC(F)(F)CC1 (single isomer, unassigned) [Example 530, N—((S)-(7-((R*)-1-(2-(3,3-Difluorocyclobutyl)acetamido)-2-ethoxyethyl)imidazo[1,2-b]pyridazin-2-yl)(4,4-difluorocyclohexyl)methyl)-1-(ethyl-d5)-1H-pyrazole-5-carboxamide]	980 nM	4600 nM	
[2H]C([2H])([2H])C([2H])([2H])n1nccc1C(=O)N[C@H](c1cn2ncc(C(COCC)NC(=O)CC3CC(F)(F)C3)cc2n1)C1CCC(F)(F)CC1 (single isomer, unassigned) [Example 531, N—((S)-(7-((S*)-1-(2-(3,3-Difluorocyclobutyl)acetamido)-2-ethoxyethyl)imidazo[1,2-b]pyridazin-2-yl)(4,4-difluorocyclohexyl)methyl)-1-(ethyl-d5)-1H-pyrazole-5-carboxamide]	220 nM	110 nM	
CC(C)n1nccc1C(=O)N[C@H](c1cn2ncc(C(CO)NC(=O)CC3CC(F)(F)C3)cc2n1)C1CCC(F)(F)CC1 (single isomer, unassigned) [Example 532, N—((S)-(7-((R*)-1-(2-(3,3-Difluorocyclobutyl)acetamido)-2-hydroxyethyl)imidazo[1,2-b]pyridazin-2-yl)(4,4-difluorocyclohexyl)methyl)-1-isopropyl-1H-pyrazole-5-carboxamide]	1500 nM	2800 nM	
CC(C)n1nccc1C(=O)N[C@H](c1cn2ncc(C(CO)NC(=O)CC3CC(F)(F)C3)cc2n1)C1CCC(F)(F)CC1 (single isomer, unassigned) [Example 533, N—((S)-(7-((S*)-1-(2-(3,3-Difluorocyclobutyl)acetamido)-2-hydroxyethyl)imidazo[1,2-b]pyridazin-2-yl)(4,4-difluorocyclohexyl)methyl)-1-isopropyl-1H-pyrazole-5-carboxamide]	480 nM	150 nM	
Cc1nonc1C(=O)N[C@H](c1cn2ncc(C(NC(=O)CC3CC(F)(F)C3)C3CCOCC3)cc2n1)C1CCC(F)(F)CC1 (single isomer, unassigned) [Example 534, N—((S)-(7-((R*)-1-(2-(3,3-Difluorocyclobutyl)acetamido)(tetrahydro-2H-pyran-4-yl)methyl)imidazo[1,2-b]pyridazin-2-yl)(4,4-difluorocyclohexyl)methyl)-4-methyl-1,2,5-oxadiazole-3-carboxamide]	96 nM		70 nM
CC(C)n1nccc1C(=O)N[C@H](c1cn2ncc(C(NC(=O)CC3CC(F)(F)C3)C3CCOCC3)cc2n1)C1CCC(F)(F)CC1 (single isomer, unassigned) [Example 535, N—((S)-(7-((R*)-1-(2-(3,3-Difluorocyclobutyl)acetamido)(tetrahydro-2H-pyran-4-yl)methyl)imidazo[1,2-b]pyridazin-2-yl)(4,4-difluorocyclohexyl)methyl)-1-isopropyl-1H-pyrazole-5-carboxamide]	440 nM		89 nM
COCC(NC(=O)CC1CC(F)(F)C1)c1cnn2cc([C@H](COC(C)(C)C(F)(F)F)NC(=O)c3nonc3C3CC3)nc2c1 (single isomer, unassigned) [Example 538, 4-Cyclopropyl-N—((R)-1-(7-((S*)-1-(2-(3,3-difluorocyclobutyl)acetamido)-2-methoxyethyl)imidazo[1,2-b]pyridazin-2-yl)-2-((1,1,1-trifluoro-2-methylpropan-2-yl)oxy)ethyl)-1,2,5-oxadiazole-3-carboxamide]	24 nM		80 nM
COCC(NC(=O)CC1CC(F)(F)C1)c1cnn2cc([C@H](COC(C)(C)C(F)(F)F)NC(=O)c3ccnn3C(C)C)nc2c1 (single isomer, unassigned) [Example 539, N—((R)-1-(7-((S*)-1-(2-(3,3-Difluorocyclobutyl)acetamido)-2-methoxyethyl)imidazo[1,2-b]pyridazin-2-yl)-2-((1,1,1-trifluoro-2-methylpropan-2-yl)oxy)ethyl)-1-isopropyl-1H-pyrazole-5-carboxamide]	130 nM		78 nM
Cc1nonc1C(=O)N[C@H](c1cn2ncc(C(NC(=O)CCC(F)(F)F)C(C)C)cc2n1)C1CCC(F)(F)CC1 (single isomer, unassigned) [Example 546, N—((S)-(4,4-Difluorocyclohexyl)(7-((R*)-2-methyl-1-(4,4,4-trifluorobutanamido)propyl)imidazo[1,2-b]pyridazin-2-yl)methyl)-4-methyl-1,2,5-oxadiazole-3-carboxamide]	640 nM	> 20000 nM	
O=C(CCC(F)(F)F)NC(c1cnn2cc([C@@H](NC(=O)c3cnn(CC4CC4)n3)C3CCC(F)(F)CC3)nc2c1)C1CC1 (stereo in doubt) [Example 25, N—((S)-(7-((R*)-Cyclopropyl(4,4,4-trifluorobutanamido)methyl)imidazo[1,2-b]pyridazin-2-yl)(4,4-difluorocyclohexyl)methyl)-2-(cyclopropylmethyl)-2H-1,2,3-triazole-4-carboxamide]	71 nM		350 nM
O=C(CC1CC(F)(F)C1)NC(c1cnn2cc([C@@H](NC(=O)c3cnn(CC(F)(F)F)n3)C3CCC(F)(F)CC3)nc2c1)C1CC1 (stereo in doubt) [Example 28, N—((S)-(7-((R*)-Cyclopropyl(2-(3,3-difluorocyclobutyl)acetamido)methyl)imidazo[1,2-b]pyridazin-2-yl)(4,4-difluorocyclohexyl)methyl)-2-(2,2,2-trifluoroethyl)-2H-1,2,3-triazole-4-carboxamide]	90 nM		390 nM
O=C(CCC(F)(F)F)N[C@H](c1cnn2cc([C@H](NC(=O)c3conc3C3CCCC3)C3CCC(F)(F)CC3)nc2c1)C1CC1 (stereo in doubt) [Example 117, 3-Cyclopentyl-N—((R)-(7-((S)-cyclopropyl(4,4,4-trifluorobutanamido)methyl)imidazo[1,2-b]pyridazin-2-yl)(4,4-difluorocyclohexyl)methyl)isoxazole-4-carboxamide]	49 nM		120 nM
CC(C)C(NC(=O)CC1CC(F)(F)C1)c1cnn2cc([C@@H](NC(=O)c3nonc3OCC(F)F)C3CCC(F)(F)CC3)nc2c1 (stereo in doubt) [Example 514, N—((S)-(7-((S*)-1-(2-(3,3-Difluorocyclobutyl)acetamido)-2-methylpropyl)imidazo[1,2-b]pyridazin-2-yl)(4,4-difluorocyclohexyl)methyl)-4-(2,2-difluoroethoxy)-1,2,5-oxadiazole-3-carboxamide]	87 nM		42 nM
CC(C)n1ncnc1C(=O)N[C@H](c1cn2ncc(C(NC(=O)CC3CC(F)(F)C3)C3CCOCC3)cc2n1)C1CCC(F)(F)CC1 (stereo in doubt) [Example 537, N—((S)-(7-((R*)-(2-(3,3-Difluorocyclobutyl)acetamido)(tetrahydro-2H-pyran-4-yl)methyl)imidazo[1,2-b]pyridazin-2-yl)(4,4-difluorocyclohexyl)methyl)-1-isopropyl-1H-1,2,4-triazole-5-carboxamide]	150 nM		150 nM
O=C(CCC(F)(F)F)N[C@@H](c1cnn2cc([C@@H](NC(=O)c3cnn(CC4CCC4(F)F)n3)C3CCC(F)(F)CC3)nc2c1)C1CC1 (stereo partly shown) [Example 4]	100 nM		370 nM
O=C(CCC(F)(F)F)NCc1cnn2cc([C@@H](NC(=O)c3ccccc3)C3CCC(F)(F)CC3)nc2c1 [Example 5, (S)—N-((4,4-Difluorocyclohexyl)(7-((4,4,4-trifluorobutanamido)methyl)imidazo[1,2-b]pyridazin-2-yl)methyl)benzamide]	1100 nM		1900 nM
O=C(CCC(F)(F)F)N[C@@H](c1cnn2cc([C@@H](NC(=O)c3cnn(CCC(F)F)n3)C3CCC(F)(F)CC3)nc2c1)C1CC1 [Example 32, N—((S)-(7-((R)-Cyclopropyl(4,4,4-trifluorobutanamido)methyl)imidazo[1,2-b]pyridazin-2-yl)(4,4-difluorocyclohexyl)methyl)-2-(3,3-difluoropropyl)-2H-1,2,3-triazole-4-carboxamide]	140 nM		240 nM
O=C(CCC(F)(F)F)N[C@@H](c1cnn2cc([C@@H](NC(=O)c3ncn(CCC(F)(F)F)n3)C3CCC(F)(F)CC3)nc2c1)C1CC1 [Example 33, N—((S)-(7-((R)-Cyclopropyl(4,4,4-trifluorobutanamido)methyl)imidazo[1,2-b]pyridazin-2-yl)(4,4-difluorocyclohexyl)methyl)-1-(3,3,3-trifluoropropyl)-1H-1,2,4-triazole-3-carboxamide]	4500 nM		> 20000 nM
O=C(CCC(F)(F)F)N[C@@H](c1cnn2cc([C@@H](NC(=O)c3cnnn3CCOC(F)F)C3CCC(F)(F)CC3)nc2c1)C1CC1 [Example 34, N—((S)-(7-((R)-Cyclopropyl(4,4,4-trifluorobutanamido)methyl)imidazo[1,2-b]pyridazin-2-yl)(4,4-difluorocyclohexyl)methyl)-1-(2-(difluoromethoxy)ethyl)-1H-1,2,3-triazole-5-carboxamide]	180 nM		64 nM
